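All cell lines were grown in 96-well plates and treated with compound for 48 hours. GI50 is the concentration that inhibits growth by half. TGI is the concentration that stops growth completely.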
What was measured:
Experiment in all cases: NCI-60 cell line screen, 48 h
NCI-H522 lung = test system: NCI-H522 lung
RPMI-8226 leukemia = test system: RPMI-8226 leukemia
SF-268 CNS = test system: SF-268 CNS
CAKI-1 renal = test system: CAKI-1 renal
OVCAR-5 ovarian = test system: OVCAR-5 ovarian
HS 578T breast = test system: HS 578T breast
BT-549 breast = test system: BT-549 breast
UACC-62 melanoma = test system: UACC-62 melanoma
SN12C renal = test system: SN12C renal
MALME-3M melanoma = test system: MALME-3M melanoma
HL-60(TB) leukemia = test system: HL-60(TB) leukemia
NCI-H23 lung = test system: NCI-H23 lung
SNB-19 CNS = test system: SNB-19 CNS
SF-295 CNS = test system: SF-295 CNS
HOP-92 NSCLC = test system: HOP-92 NSCLC
NCI-H460 lung = test system: NCI-H460 lung
OVCAR-4 ovarian = test system: OVCAR-4 ovarian
SK-MEL-28 melanoma = test system: SK-MEL-28 melanoma
NCI-H226 lung = test system: NCI-H226 lung
ACHN renal = test system: ACHN renal
SW-620 colon = test system: SW-620 colon
COLO 205 colon = test system: COLO 205 colon
A549 NSCLC = test system: A549 NSCLC
SK-OV-3 ovarian = test system: SK-OV-3 ovarian
786-0 renal = test system: 786-0 renal
MOLT-4 leukemia = test system: MOLT-4 leukemia
HOP-62 NSCLC = test system: HOP-62 NSCLC
RXF 393 renal = test system: RXF 393 renal
LOX IMVI melanoma = test system: LOX IMVI melanoma
EKVX NSCLC = test system: EKVX NSCLC
IGROV1 ovarian = test system: IGROV1 ovarian
HCT-15 colon = test system: HCT-15 colon
T-47D breast = test system: T-47D breast
PC-3 prostate = test system: PC-3 prostate
OVCAR-8 ovarian = test system: OVCAR-8 ovarian
UACC-257 melanoma = test system: UACC-257 melanoma
UO-31 renal = test system: UO-31 renal
DU-145 prostate = test system: DU-145 prostate
KM12 colon = test system: KM12 colon
A498 renal = test system: A498 renal
SNB-75 CNS = test system: SNB-75 CNS
HCC-2998 colon = test system: HCC-2998 colon
HT29 colon = test system: HT29 colon
SK-MEL-5 melanoma = test system: SK-MEL-5 melanoma
OVCAR-3 ovarian = test system: OVCAR-3 ovarian
NCI/ADR-RES ovarian = test system: NCI/ADR-RES ovarian
CCRF-CEM leukemia = test system: CCRF-CEM leukemia
TK-10 renal = test system: TK-10 renal
MDA-MB-231 breast = test system: MDA-MB-231 breast
HCT-116 colon = test system: HCT-116 colon
MCF7 breast = test system: MCF7 breast
M14 melanoma = test system: M14 melanoma
K-562 leukemia = test system: K-562 leukemia
SK-MEL-2 melanoma = test system: SK-MEL-2 melanoma
SR leukemia = test system: SR leukemia
U251 CNS = test system: U251 CNS
SF-539 CNS = test system: SF-539 CNS
MDA-MB-435 = test system: MDA-MB-435

## COc1cc(C(=O)N2CCN(c3ccccc3)CC2)c2ccccc2n1
NCI-H522 lung
  GI50: 32.4 nM
  TGI: 475 nM
RPMI-8226 leukemia
  GI50: 247 nM
  TGI: > 100000 nM
SF-268 CNS
  GI50: 200 nM
  TGI: > 100000 nM
CAKI-1 renal
  GI50: 43 nM
  TGI: > 22500 nM
OVCAR-5 ovarian
  GI50: 586 nM
  TGI: > 100000 nM
HS 578T breast
  GI50: 38.7 nM
  TGI: 387 nM
BT-549 breast
  GI50: 475 nM
  TGI: > 100000 nM
UACC-62 melanoma
  GI50: 48.2 nM
  TGI: > 100000 nM
SN12C renal
  GI50: 485 nM
  TGI: > 100000 nM
MALME-3M melanoma
  GI50: 48.4 nM
  TGI: > 100000 nM
HL-60(TB) leukemia
  GI50: 110 nM
NCI-H23 lung
  GI50: 225 nM
  TGI: > 100000 nM
SNB-19 CNS
  GI50: 929 nM
  TGI: > 100000 nM
SF-295 CNS
  GI50: 27.6 nM
  TGI: 115 nM
HOP-92 NSCLC
  GI50: 1470 nM
  TGI: 29200 nM
NCI-H460 lung
  GI50: 48.1 nM
  TGI: 4100 nM
OVCAR-4 ovarian
  GI50: 4270 nM
  TGI: > 100000 nM
SK-MEL-28 melanoma
  GI50: > 100000 nM
  TGI: > 100000 nM
NCI-H226 lung
  GI50: 12700 nM
  TGI: > 100000 nM
ACHN renal
  GI50: 382 nM
  TGI: > 100000 nM
SW-620 colon
  GI50: 52.6 nM
  TGI: > 100000 nM
COLO 205 colon
  GI50: 62.3 nM
  TGI: 659 nM
A549 NSCLC
  GI50: 101 nM
  TGI: > 100000 nM
SK-OV-3 ovarian
  GI50: 99.3 nM
  TGI: > 100000 nM
786-0 renal
  GI50: 127 nM
  TGI: > 100000 nM
MOLT-4 leukemia
  GI50: 863 nM
  TGI: > 100000 nM
HOP-62 NSCLC
  GI50: 119 nM
  TGI: > 100000 nM
RXF 393 renal
  GI50: 92.7 nM
  TGI: > 100000 nM
LOX IMVI melanoma
  GI50: 86 nM
  TGI: > 52000 nM
EKVX NSCLC
  GI50: 243 nM
  TGI: > 100000 nM
IGROV1 ovarian
  GI50: 96.5 nM
  TGI: > 100000 nM
HCT-15 colon
  GI50: 149 nM
  TGI: > 100000 nM
T-47D breast
  GI50: 53 nM
  TGI: > 100000 nM
PC-3 prostate
  GI50: 84.6 nM
  TGI: > 100000 nM
OVCAR-8 ovarian
  GI50: 248 nM
  TGI: > 23800 nM
UACC-257 melanoma
  GI50: 108 nM
  TGI: > 100000 nM
UO-31 renal
  GI50: 87.5 nM
  TGI: > 83700 nM
DU-145 prostate
  GI50: 64.8 nM
  TGI: 468 nM
KM12 colon
  GI50: 41.2 nM
  TGI: 5190 nM
A498 renal
  GI50: 22.6 nM
  TGI: 357 nM
SNB-75 CNS
  GI50: 40.2 nM
HCC-2998 colon
  GI50: 69.6 nM
  TGI: 486 nM
HT29 colon
  GI50: 41 nM
  TGI: 10300 nM
SK-MEL-5 melanoma
  GI50: 54.1 nM
  TGI: 9420 nM
OVCAR-3 ovarian
  GI50: 24.1 nM
  TGI: 68.7 nM
NCI/ADR-RES ovarian
  GI50: 36.1 nM
  TGI: 176 nM
CCRF-CEM leukemia
  GI50: 128 nM
  TGI: > 100000 nM
TK-10 renal
  GI50: 287 nM
  TGI: > 100000 nM
MDA-MB-231 breast
  GI50: 301 nM
  TGI: > 25200 nM
HCT-116 colon
  GI50: 55 nM
  TGI: 28100 nM
MCF7 breast
  GI50: 38.6 nM
  TGI: > 100000 nM
M14 melanoma
  GI50: 58.2 nM
  TGI: 805 nM
K-562 leukemia
  GI50: 78.2 nM
  TGI: > 100000 nM
SK-MEL-2 melanoma
  GI50: 432 nM
  TGI: > 100000 nM
SR leukemia
  GI50: 53.7 nM
  TGI: > 100000 nM
U251 CNS
  GI50: 95.5 nM
  TGI: > 100000 nM
SF-539 CNS
  GI50: 97.3 nM

## O=C(NNC1=NCCCCN1)Nc1ccc(Cl)cc1
NCI-H522 lung
  TGI: > 100000 nM
RPMI-8226 leukemia
  TGI: > 100000 nM
SF-268 CNS
  TGI: > 100000 nM
CAKI-1 renal
  TGI: > 100000 nM
OVCAR-5 ovarian
  TGI: > 100000 nM
HS 578T breast
  TGI: > 100000 nM
BT-549 breast
  TGI: > 100000 nM
UACC-62 melanoma
  TGI: > 100000 nM
MALME-3M melanoma
  TGI: > 100000 nM
HL-60(TB) leukemia
  TGI: > 100000 nM
NCI-H23 lung
  TGI: > 100000 nM
SNB-19 CNS
  TGI: > 100000 nM
SF-295 CNS
  TGI: > 100000 nM
HOP-92 NSCLC
  TGI: > 100000 nM
NCI-H460 lung
  TGI: > 100000 nM
OVCAR-4 ovarian
  TGI: > 100000 nM
SK-MEL-28 melanoma
  TGI: > 100000 nM
NCI-H226 lung
  TGI: > 100000 nM
ACHN renal
  TGI: > 100000 nM
SW-620 colon
  TGI: > 100000 nM
COLO 205 colon
  TGI: > 100000 nM
A549 NSCLC
  TGI: > 100000 nM
SK-OV-3 ovarian
  TGI: > 100000 nM
786-0 renal
  TGI: > 100000 nM
MOLT-4 leukemia
  TGI: 72400 nM
HOP-62 NSCLC
  TGI: > 100000 nM
RXF 393 renal
  TGI: > 100000 nM
LOX IMVI melanoma
  TGI: > 100000 nM
EKVX NSCLC
  TGI: > 100000 nM
IGROV1 ovarian
  TGI: > 100000 nM
HCT-15 colon
  TGI: > 100000 nM
T-47D breast
  TGI: > 100000 nM
PC-3 prostate
  TGI: > 100000 nM
OVCAR-8 ovarian
  TGI: > 100000 nM
UACC-257 melanoma
  TGI: > 100000 nM
UO-31 renal
  TGI: > 100000 nM
KM12 colon
  TGI: > 100000 nM
A498 renal
  TGI: > 100000 nM
SNB-75 CNS
  TGI: > 100000 nM
HCC-2998 colon
  TGI: > 100000 nM
HT29 colon
  TGI: > 100000 nM
SK-MEL-5 melanoma
  TGI: > 100000 nM
MDA-MB-435
  TGI: > 100000 nM
OVCAR-3 ovarian
  TGI: > 100000 nM
NCI/ADR-RES ovarian
  TGI: > 100000 nM
CCRF-CEM leukemia
  TGI: > 100000 nM
TK-10 renal
  TGI: > 100000 nM
HCT-116 colon
  TGI: > 100000 nM
MCF7 breast
  TGI: > 100000 nM
K-562 leukemia
  TGI: > 100000 nM
SK-MEL-2 melanoma
  TGI: > 100000 nM
SR leukemia
  TGI: > 100000 nM
U251 CNS
  TGI: > 100000 nM
SF-539 CNS
  TGI: > 100000 nM

From PubChem BioAssay (NCI)
